Results as given in US20160193179A1, “Treatment of Cardiovascular Risk in Diabetic Patients” (EVOLVA SA, priority 2012, published 2016).

Key:
PARP cleavage in HUVEC = experiment: PARP-1 cleavage (apoptosis) by western blot in HUVEC; format: cell-based, human
Description: FIGS. 3C and 3D show the effect of Compound 3 on PARP cleavage induced by TNFα in HUVEC after 6 h of incubation. C) Total protein extracts are recovered and analysed by western blot. β-actin serves as the loading control. D) Quantification of optical density of each band and expression of the ratio between the optical density of PARP cleavage and the total of PARP.
HUVEC are seeded at 187,500 cells/flask in gelatin-coated T75 in EGM. After 4 days, cell medium is replaced by EBM containing or not containing Compound 3 at different concentrations. After 1 h of preincubation, 1 ng/ml TNFα is added or is not added into the T75 flasks. 6 h after, cell media are collected and centrifuged at 500 g for 5 min to pellet and pool floating cells with adherent cells. Adherent cells are washed twice with cold PBS and are collected in 1.5 ml of PBS. Harvested cells are then centrifuged at 500 g for 5 min at 4° C. […] Protein concentration is measured using Pierce method (Pierce 660 nm protein assay, Thermoscientific, USA) with the Ionic Detergent Compatibility Reagent (Thermoscientific, USA). […] Antibody binding was analysed with the scanner Odyssey Image System (Li-COR, Biosciences, USA) and Odyssey V3.0 software. Optical density of each band is also determined by using the software.

[1] = system: COX-2, IL-6, IL-8, ICAM-1, VCAM-1, PTX3, MCP-1 mRNA expression in HUVEC; experiment: Real time RT-PCR of TNFα-induced mRNA expression in HUVEC; format: cell-based, human; conditions: for ICAM-1 mRNA expression induced by TNFα / PTX3 mRNA expression induced by TNFα: 1 ng/ml TNFα 6 h
Description: FIGS. 1 and 2A show the effects of Compound 3 on mRNA expression of genes of interest encoding inflammatory or oxidative markers. mRNA expression is evaluated by quantitative RT-PCR in HUVEC after 6 h of TNFα stimulation. Data are means±S.D. (n=3). Statistical analysis: one way ANOVA followed by Bonferroni, Versus CTL NS p>0.05, * p<0.05, ** p<0.01, *** p<0.001; Versus TNFα $ p<0.05, $$ p<0.01, $$$ p<0.001.
HUVEC are seeded at 67,500 cells/flask in gelatin-coated T25 in EGM. After 4 days, cell medium is replaced by EBM containing or not containing Compound 3 at different concentrations. After 1 h of preincubation, 1 ng/ml TNFα is added or is not into the T25 flasks. 6 h after, cell medium is discarded and cells are washed twice with PBS. Total RNA extraction is performed by using QIAGEN RNeasy mini Kit according to the protocol provided by the manufacturer (QIAGEN). RNA concentration for each sample is determined by Nanodrop Spectrophotometer ND-100 (ISOGEN, Life Science). Reverse transcription was performed using Transcriptor First Strand cDNA Synthesis Kit Roche (Roche Applied Science). Transcript levels are determined by quantitative reverse transcription polymerase chain reaction (qRT-PCR). cDNA obtained by reverse transcription of total RNA are diluted 100 times and 5 μl are mixed with 12.5 μl of Fast start Universal SYBRGreen Master (Roche), 2.5 μl MilliQ water, 2.5 μl of diluted primer forward and 2.5 μl of diluted primer reverse to have an optimal and final concentration of 300 nM or 900 nM. PCRs are carried out in a real-time PCR cycler (Applied Biosystems 7900HT Fast Real-time PCR System): a hot start at 95° C. for 5 min is followed by 40 cycles at 95° C. for 15 s and 65° C. for 1 min. Samples are compared using the relative cycle threshold (Ct) method. To normalize the load of cDNA for each sample, RPL13 is used as the endogenous standard. Primer sequences are listed below.
List of primers used in real time RT-PCR.

[2] = from 100 nM, not increased at 300 nM and 600 nM

CC(C)(C)N.O=C(O)CC/C=C\C[C@@H]1CO[C@H](c2ccccc2Cl)O[C@@H]1c1ccccc1O [Compound 3, tert-butylammonium (Z)-6-((2S,4S,5R)-2-(2-chlorophenyl)-4-(2-hydroxyphenyl)-1,3-dioxan-5-yl)hex-4-enoate]
induction of apoptosis (PARP cleavage) by the compound itself (PARP cleavage in HUVEC; HUVEC 6 h, without TNFα): does not induce apoptosis
PARP cleavage induced by TNFα (PARP cleavage in HUVEC; HUVEC, TNFα 6 h, western blot): does not decrease
ICAM-1 mRNA expression induced by TNFα ([1]; 10 nM): no effect
PTX3 mRNA expression induced by TNFα ([1]; 10 nM): no effect
ICAM-1 mRNA expression induced by TNFα [1, 2]: significant decrease
PTX3 mRNA expression induced by TNFα [1, 2]: significant decrease
mRNA expression of all genes of interest (COX-2, IL-6, IL-8, ICAM-1, VCAM-1, PTX3, MCP-1) ([1]; Compound 3 at the highest concentration, without TNFα): no effect
